The term IC50 denotes the concentration needed to halve the response being measured.

Data on 15 compounds can be found in ChEMBL document CHEMBL4130490, “Discovery of Benzo[g]quinazolin benzenesulfonamide derivatives as dual EGFR/HER2 inhibitors” (Eur J Med Chem, 2017).

The subject of assay [1] is A549. As to the kind of experiment: Cytotoxicity against human A549 cells after 24 hrs by MTT assay. It is filed as functional, cell-based. Particulars: A549, 24 h.
Assay [2] has as its target Receptor tyrosine-protein kinase erbB-2 (Homo sapiens, UniProt P04626). As to the kind of experiment: Inhibition of recombinant human His-tagged HER2 cytoplasmic domain (676 to 1255 residues) expressed in baculovirus virus expression system after 1 hr by ELISA. In general terms: In an ELISA, binding on a coated surface is turned into a signal by an enzyme label.
The subject of assay [3] is A549. The experiment in a line: Induction of apoptosis in human A549 cells assessed as increase in active caspase-3 level by immunoassay relative to control. It is filed as functional.
In assay [4] the target is Epidermal growth factor receptor (Homo sapiens, UniProt P00533). As to the kind of experiment: Inhibition of recombinant human GST-tagged EGFR cytoplasmic domain (668 to 1210 residues) expressed in baculovirus virus expression system after 1 hr by ELISA.
Epidermal growth factor receptor, sequence (P00533 whole entry, the tested form may be a part): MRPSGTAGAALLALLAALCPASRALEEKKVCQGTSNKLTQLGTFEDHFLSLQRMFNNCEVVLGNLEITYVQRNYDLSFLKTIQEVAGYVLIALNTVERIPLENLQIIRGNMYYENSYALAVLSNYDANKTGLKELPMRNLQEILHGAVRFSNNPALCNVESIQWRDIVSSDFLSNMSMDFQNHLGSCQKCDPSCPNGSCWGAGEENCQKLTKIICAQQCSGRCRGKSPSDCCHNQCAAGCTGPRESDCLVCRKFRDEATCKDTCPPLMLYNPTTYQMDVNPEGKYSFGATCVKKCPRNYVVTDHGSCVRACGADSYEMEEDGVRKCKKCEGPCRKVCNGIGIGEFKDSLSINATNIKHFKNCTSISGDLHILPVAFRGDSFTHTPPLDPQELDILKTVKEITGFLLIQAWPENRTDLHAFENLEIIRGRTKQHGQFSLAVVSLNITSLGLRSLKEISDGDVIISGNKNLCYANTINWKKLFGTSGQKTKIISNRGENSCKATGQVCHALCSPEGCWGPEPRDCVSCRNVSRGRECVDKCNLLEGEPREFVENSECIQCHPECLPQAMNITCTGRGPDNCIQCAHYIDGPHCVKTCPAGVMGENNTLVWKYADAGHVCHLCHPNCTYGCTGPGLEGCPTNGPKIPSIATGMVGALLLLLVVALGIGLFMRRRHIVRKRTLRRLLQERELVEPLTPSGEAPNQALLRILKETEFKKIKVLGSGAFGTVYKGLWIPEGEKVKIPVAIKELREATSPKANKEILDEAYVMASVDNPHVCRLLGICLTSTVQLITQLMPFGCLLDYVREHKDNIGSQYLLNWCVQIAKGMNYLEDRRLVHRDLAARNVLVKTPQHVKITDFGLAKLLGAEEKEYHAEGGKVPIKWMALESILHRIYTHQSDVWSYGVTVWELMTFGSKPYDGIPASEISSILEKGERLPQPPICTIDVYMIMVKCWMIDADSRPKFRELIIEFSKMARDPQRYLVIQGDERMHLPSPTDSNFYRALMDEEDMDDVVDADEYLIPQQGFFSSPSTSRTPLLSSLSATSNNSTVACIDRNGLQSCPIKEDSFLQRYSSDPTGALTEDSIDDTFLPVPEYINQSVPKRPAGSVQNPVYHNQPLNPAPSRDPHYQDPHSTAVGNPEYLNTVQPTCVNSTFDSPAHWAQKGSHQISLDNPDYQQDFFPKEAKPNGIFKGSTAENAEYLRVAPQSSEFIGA

Receptor tyrosine-protein kinase erbB-2, sequence (P04626 whole entry, the tested form may be a part): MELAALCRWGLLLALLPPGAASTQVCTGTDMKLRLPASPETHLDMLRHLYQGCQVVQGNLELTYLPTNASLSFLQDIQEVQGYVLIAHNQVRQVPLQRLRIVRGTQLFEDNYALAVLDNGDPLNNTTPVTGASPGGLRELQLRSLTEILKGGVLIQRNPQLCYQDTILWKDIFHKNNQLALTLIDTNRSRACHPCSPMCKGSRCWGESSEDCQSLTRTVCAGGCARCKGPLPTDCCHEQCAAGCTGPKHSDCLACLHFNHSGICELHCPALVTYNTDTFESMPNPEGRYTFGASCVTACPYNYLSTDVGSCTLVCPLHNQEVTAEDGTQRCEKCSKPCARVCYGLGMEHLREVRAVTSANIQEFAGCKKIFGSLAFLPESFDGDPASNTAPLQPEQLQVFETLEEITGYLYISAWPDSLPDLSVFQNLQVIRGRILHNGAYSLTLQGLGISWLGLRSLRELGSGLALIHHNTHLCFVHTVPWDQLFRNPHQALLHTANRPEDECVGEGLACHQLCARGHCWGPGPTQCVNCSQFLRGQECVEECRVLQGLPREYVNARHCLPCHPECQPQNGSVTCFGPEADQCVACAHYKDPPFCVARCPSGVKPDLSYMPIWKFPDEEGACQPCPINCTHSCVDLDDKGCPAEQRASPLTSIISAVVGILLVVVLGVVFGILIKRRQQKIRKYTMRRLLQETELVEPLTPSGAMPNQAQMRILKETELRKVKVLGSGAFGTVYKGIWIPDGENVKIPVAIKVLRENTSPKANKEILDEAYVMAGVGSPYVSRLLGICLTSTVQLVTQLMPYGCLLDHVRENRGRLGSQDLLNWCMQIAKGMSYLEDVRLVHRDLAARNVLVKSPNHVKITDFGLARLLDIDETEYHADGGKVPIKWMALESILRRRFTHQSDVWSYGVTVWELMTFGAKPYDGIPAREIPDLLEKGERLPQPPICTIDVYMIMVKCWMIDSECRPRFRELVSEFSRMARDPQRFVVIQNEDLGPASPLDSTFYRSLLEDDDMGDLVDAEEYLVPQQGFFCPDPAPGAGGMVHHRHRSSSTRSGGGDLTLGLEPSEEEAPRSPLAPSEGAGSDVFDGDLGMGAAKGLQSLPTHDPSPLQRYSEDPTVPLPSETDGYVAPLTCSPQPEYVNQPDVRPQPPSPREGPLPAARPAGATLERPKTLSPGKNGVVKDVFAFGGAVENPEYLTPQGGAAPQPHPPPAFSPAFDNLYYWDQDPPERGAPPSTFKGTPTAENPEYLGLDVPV

Turning to `NS(=O)(=O)c1ccc(-n2c(SCC(=O)Nc3ccncc3)nc3cc4ccccc4cc3c2=O)cc1`, in the assay on A549 [1], the IC50 was determined as 500 nM.
With `NS(=O)(=O)c1ccc(-n2c(SCC(=O)Nc3ccc(I)cc3)nc3cc4ccccc4cc3c2=O)cc1`, in the assay on A549 [1], it took 2530 nM to reach half-maximal inhibition (IC50).
With `NS(=O)(=O)c1ccc(-n2c(SCC(=O)Nc3ccccn3)nc3cc4ccccc4cc3c2=O)cc1`, the midpoint of inhibition in the assay with A549 [1], the IC50, lay at 3520 nM.
The same measure, in the same setting: to `NS(=O)(=O)c1ccc(-n2c(SCC(=O)Nc3c(Cl)cc(Cl)cc3Cl)nc3cc4ccccc4cc3c2=O)cc1` belongs 1070 nM.
With `NS(=O)(=O)c1ccc(-n2c(SCC(=O)Nc3cc(Cl)c(Cl)cc3Cl)nc3cc4ccccc4cc3c2=O)cc1`, the IC50 in assay [2] was 760 nM; with A549 [1], 290 nM. The “fold change (FC)” value in the assay on A549 [3] is reported as 6.28.
The compound `Cc1cccc([N+](=O)[O-])c1NC(=O)CSc1nc2cc3ccccc3cc2c(=O)n1-c1ccc(S(N)(=O)=O)cc1` displayed an IC50 in the assay on A549 [1] of 1480 nM.
On to `NS(=O)(=O)c1ccc(-n2c(SCC(=O)Nc3cnc4ccccc4c3)nc3cc4ccccc4cc3c2=O)cc1`, for which the figures for the IC50 (in assay [4]; in assay [2]; in the assay on A549 [1]) were 110 nM, 390 nM and 120 nM, respectively. For the same compound, the “fold change (FC)” value with A549 [3] was 8.49.
In the assay on A549 [1], `NS(=O)(=O)c1ccc(-n2c(SCC(=O)Nc3ccc(Br)cc3Br)nc3cc4ccccc4cc3c2=O)cc1` yielded an IC50 of 1500 nM.
The same measure, in the same setting: to `NS(=O)(=O)c1ccc(-n2c(SCC(=O)Nc3ccc(Cl)cn3)nc3cc4ccccc4cc3c2=O)cc1` belongs 1020 nM; to `NS(=O)(=O)c1ccc(-n2c(SCC(=O)Nc3ccc(Br)cc3)nc3cc4ccccc4cc3c2=O)cc1`, 8700 nM.
On the same count and under the same terms, to `NS(=O)(=O)c1ccc(-n2c(SCC(=O)NCc3ccc4c(c3)OCO4)nc3cc4ccccc4cc3c2=O)cc1` belongs 1360 nM.
The same measure, in the same setting: for `NS(=O)(=O)c1ccc(-n2c(SCC(=O)Nc3cccnc3)nc3cc4ccccc4cc3c2=O)cc1` the value was 490 nM; for `NS(=O)(=O)c1ccc(-n2c(SCC(=O)Nc3cccnc3Cl)nc3cc4ccccc4cc3c2=O)cc1`, 670 nM; for `NS(=O)(=O)c1ccc(-n2c(SCC(=O)Nc3ccccc3Cl)nc3cc4ccccc4cc3c2=O)cc1`, 1160 nM.
Take `NS(=O)(=O)c1ccc(-n2c(SCC(=O)Nc3ccc([N+](=O)[O-])cc3[N+](=O)[O-])nc3cc4ccccc4cc3c2=O)cc1`: the IC50 was determined as 60 nM in assay [4], 300 nM in assay [2] and 280 nM in the assay with A549 [1]. For the same compound, the “fold change (FC)” value in the assay on A549 [3] is 9.35.
